According to BindingDB's records for doi:10.7270/Q2S46QC1 (Nmmlsc, 2009):

biological target: Apoptosis regulator Bcl-2 (Homo sapiens, UniProt P10415); assay: inhibitors of Bim-Bcl-2 binding, confirmation, biochemical, dose response, multiplexed HTS hits (AID 2075); details: not given
Sequence (P10415 whole entry): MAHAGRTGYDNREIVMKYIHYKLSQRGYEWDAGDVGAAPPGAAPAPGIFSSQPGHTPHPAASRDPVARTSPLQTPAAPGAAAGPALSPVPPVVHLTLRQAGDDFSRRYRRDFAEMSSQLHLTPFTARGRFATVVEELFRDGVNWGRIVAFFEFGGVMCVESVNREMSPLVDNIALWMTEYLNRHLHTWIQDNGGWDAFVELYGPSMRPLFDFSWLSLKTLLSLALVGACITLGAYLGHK

Compound	EC50 [µM]
O=C1NC(=O)C2(Cc3c(nc4ccccn4c3=O)N3CCCCCC32)C(=O)N1Cc1ccccc1 (configuration not stated) [MLS000083668]	2.25
O=[N+]([O-])c1c(NCCCO)cc(Sc2nc3ccccc3s2)c2nonc12 [MLS000520994]	1.91
CN(CCO)c1cc(Sc2nc3ccccc3s2)c2nonc2c1[N+](=O)[O-] [MLS000520995]	6.35
CC(=O)OCCCNc1cc(Sc2nc3ccccc3s2)c2nonc2c1[N+](=O)[O-] [MLS000521052]	0.84
Cc1cc2nn(-c3cccc4ccccc34)nc2cc1N [SMR000076237]	1.9
Cc1ccc(C=NNC(=O)CSc2nnc(-c3ccc(Cl)cc3)n2-c2ccccc2)o1 [SMR000218122]	12.3

same assay, conditions: inactive by the depositor's call

Compound	EC50 [µM]
O=C(NCc1ccccc1)c1ccc2nc(-c3ccco3)c(-c3ccco3)nc2c1 [2,3-bis(furan-2-yl)-N-(phenylmethyl)quinoxaline-6-carboxamide]	20.6
Cc1ccc(-c2nc3c(c(=O)[nH]c(=O)n3Cc3ccccc3)n2C)o1 [7-methyl-8-(5-methyl-2-furanyl)-3-(phenylmethyl)purine-2,6-dione]	48.2
Clc1nc(NCc2cccnc2)nc(N2CCOCC2)n1 [MLS000121154]	18.9
COc1ccc(CCNC(=O)c2ccc3nc(-c4ccco4)c(-c4ccco4)nc3c2)cc1OC [N-[2-(3,4-dimethoxyphenyl)ethyl]-2,3-di-2-furylquinoxaline-6-carboxamide]	25.8
COc1ccccc1NC1=C(NC(C)=O)C(=O)c2ccccc2C1=O [N-[3-(2-methoxyanilino)-1,4-dioxonaphthalen-2-yl]acetamide]	12.1
CCN(CC)C(=O)COC(=O)c1cc(-c2ccco2)nc2ccccc12 [SMR000377201]	29.5
